Measurements: patent US20210139846A1, “ENGINEERED CELLS, AND METHODS OF USING THE SAME” (Board of Supervisors of Louisiana State University and …, priority 2017, published 2021)

What was measured:
AdipoR1 = molecular target: T1, AdipoR1 (Homo sapiens, UniProt Q96A54); assay: DHA-d5 / AA-d8 uptake by hASCs overexpressing AdipoR1, LC-MS/MS, with adiporon (FIG. 11); type: cell-based
T1 construct: host or cells: human adipose tissue-derived stem cells (hASC); human primary retinal pigment epithelial (ABC) cells
T1 sequence (Q96A54 1-375): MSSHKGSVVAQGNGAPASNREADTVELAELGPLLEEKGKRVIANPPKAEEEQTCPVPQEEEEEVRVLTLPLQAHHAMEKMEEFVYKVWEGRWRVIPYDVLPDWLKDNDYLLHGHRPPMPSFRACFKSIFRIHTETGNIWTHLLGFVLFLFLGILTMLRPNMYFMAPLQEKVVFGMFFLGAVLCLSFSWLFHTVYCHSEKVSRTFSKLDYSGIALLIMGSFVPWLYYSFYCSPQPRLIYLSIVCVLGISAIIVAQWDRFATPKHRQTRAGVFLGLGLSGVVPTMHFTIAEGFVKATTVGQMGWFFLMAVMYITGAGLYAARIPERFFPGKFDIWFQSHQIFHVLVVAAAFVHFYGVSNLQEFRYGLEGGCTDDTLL
Experimental: Stable clones of hASCs overexpressing AdipoR1 or mCherry following lentivirus transduction, were incubated overnight in the presence or not of DHA-d5 or AA-d8 (1 μM) and vehicle DMSO with various concentrations of AdipoR1 […] adiporon (1-50 μM). […] Compared to DHA-d5 uptake, levels of AA-d8 were extremely low under these conditions.

ischemic stroke = assay: DHA administered icv after ischemic stroke (FIG. 7); type: in vivo, rats
[1] = test system: human adipose tissue derived stem cells; assay: Chemical transdifferentiation of stem cells into neurons with DHA (FIG. 12); type: cell-based; conditions: 24 hours, induction media containing DHA (504) vs induction medium alone
Experimental: Images were taken 24 hours following incubation in the presence of induction media containing or not containing DHA (504).

[2] = test system: SD male rats, 2 h of MCAo; conditions: DHA systemically injected; reference 8; cited from earlier work
[3] = test system: neurons and neural stem/progenitor cells; conditions: cited from earlier work
[4] = test system: SD male rats, 2 h of MCAo; assay: 2 h MCAo by intraluminal suture, DHA 5 mg/kg IV (FIG. 16-23); type: in vivo
Experimental: (11-12 weeks old); Model: 2 h of MCAo by intraluminal suture; DHA (5 mg/kg) or Saline treatments (IV)—at 3 h from onset of MCAo; BrdU labeling at days 4, 5, 6; Immunohistochemistry on week 2

[5] = DHA 5 mg/kg IV, immunohistochemistry on week 2

CCCCC/C=C\C/C=C\C/C=C\C/C=C\CCCC(=O)O [AA-d8]
levels of AA-d8 compared to DHA-d5 uptake (AdipoR1; 1 μM AA-d8 overnight in hASCs): extremely low

CC/C=C\C/C=C\C/C=C\C/C=C\C/C=C\C/C=C\CCC(=O)O [DHA, 4,7,10,13,16,19-docosahexanoic acid]
ischemic brain damage (ischemic stroke; DHA at the site where GESC would be administered (icv), 7 days): reduced | behavioral functions (ischemic stroke; DHA icv, 7 days): improves | protection by DHA administered icv (ischemic stroke; icv): protective | percentage of morphologically mature neurons [1]: strongly increased | neuroprotection against ischemic stroke [2]: neuroprotective | neurite growth, synaptogenesis, synaptic protein expression and synaptic functions in hippocamal neuron ([3]; Cao, D et al., 2009): promotes | neurite outgrowth ([3]; DHA supplementation, L. Dagai et al., 2009): accelerated | neuronal differentiation of neural stem cells ([3]; M. Katakura et al., 2009): enhances | number of neurons derived from neural stem/progenitor cells ([3]; Nobuyuki Sakayoti et al., 2011): increases | total neurologic deficits ([4]; DHA 5 mg/kg IV at 3 h from onset of MCAo vs saline): improved | cortical infarct volume ([4]; DHA 5 mg/kg IV, histopathology): reduced | total infarct volume ([4]; DHA 5 mg/kg IV, histopathology): reduced | BrdU+/DCX+ cells in cortex, SVZ and DG [4, 5]: increased | BrdU+/NeuN+ cells in cortex, SVZ and DG [4, 5]: increased | BrdU+/ki-67+ cells in cortex, SVZ and DG [4, 5]: increased | neurogenesis in the DG, SVZ and peri-infarct area ([4]; proliferation, differentiation and migration of neural stem cells): increased | infarct volume ([4]; rat, in vivo): reduced | neurobehavioral recovery ([4]; rat, in vivo): promoted

O=C(COc1ccc(C(=O)c2ccccc2)cc1)NC1CCN(Cc2ccccc2)CC1 [adiporon]
effect on DHA-d5 uptake of AdipoR1 transduced cells (AdipoR1; adiporon 1-50 μM, 1 μM DHA-d5 overnight): further increased
